Assay results reported in patent US7968568B2, “Substituted piperidine derivatives as SST5 modulators” (Hoffmann-La Roche Inc., priority 2006, dated 2011).

Biological target: T1, human subtype 5 somatostatin receptor (Homo sapiens, UniProt P35346)
T1 construct: host or cells: CHO cell line, stably transfected; membranes prepared
Assay: SSTR5 radioligand binding assay (125I-labeled 11-Tyr somatostatin-14) on CHO cell membranes
Settings: Ki calculated from IC50 by Cheng-Prussoff equation
Protocol: A CHO cell line stably transfected with a plasmid encoding the human subtype 5 somatostatin receptor (GenBank accession number D16827) was obtained from Euroscreen. Cells were cultured and used for binding and functional assays.
Membranes of these cells were prepared by sonication in the presence of protease inhibitors and subsequent fractionating centrifugation. The protein concentration in the membrane preparation was determined using a commercial kit (BCA kit, Pierce, USA). Membranes were stored at −80° C. until use. After thawing, membranes were diluted in assay buffer (50 mM Tris-HCl at pH 7.4, 5 mM MgCl2 and 0.20% BSA) and subjected to dounce homogenization.
For binding studies, 0.1 mL membrane suspension, corresponding to app. 6×10^−15 mol receptor, was incubated for 1 h at room temperature with 0.05 nM ^125I-labeled tracer (11-Tyr somatostatin-14, Perkin-Elmer) and either test compounds in varying concentrations or, for the determination of non-specific binding, 0.001 mM non-labeled somatostatin-14. The incubation was stopped by filtration through GF/B glassfiber filters and washing with ice-cold wash buffer (50 mM Tris-HCl at pH 7.4). The bound radioactivity was measured after application of a scintillation cocktail (Microscint 40) and expressed as disintegrations per minute (dpm).
The receptor concentration was determined in a prior saturation experiment where a fixed, arbitrary amount of membranes was incubated with a concentration range of radio-labeled tracer. This allows estimating the total number of specific binding sites per amount of protein (i.e., Bmax), typically between 1 and 5 pmol/mg.
The concentration of the test compound required to result in half maximal inhibition of binding of the radio-labeled tracer (IC50) was estimated from a concentration-versus-dpm graph. The binding affinity (Ki) was calculated from the IC50 by applying the Cheng-Prussoff equation for single binding sites.

T1 sequence (P35346 whole entry): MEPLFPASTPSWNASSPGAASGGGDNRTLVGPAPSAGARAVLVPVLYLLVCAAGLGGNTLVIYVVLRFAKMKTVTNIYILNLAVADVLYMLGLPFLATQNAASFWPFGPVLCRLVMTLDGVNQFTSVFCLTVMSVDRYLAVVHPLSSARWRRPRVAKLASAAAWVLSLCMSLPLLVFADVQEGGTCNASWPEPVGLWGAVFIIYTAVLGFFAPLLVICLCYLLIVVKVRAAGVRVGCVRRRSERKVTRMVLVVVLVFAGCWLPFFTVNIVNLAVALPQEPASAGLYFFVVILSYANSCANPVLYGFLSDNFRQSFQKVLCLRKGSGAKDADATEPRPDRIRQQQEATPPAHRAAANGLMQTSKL

In order of falling Ki:
1. CCOc1cc(CN2CCC(Nc3nc(Cl)nc4cc(Cl)c(F)cc34)CC2)ccc1OC [Example 15, (2,7-dichloro-6-fluoro-quinazolin-4-yl)-[1-(3-ethoxy-4-methoxy-benzyl)-piperidin-4-yl]-amine]  383 nM
2. C=CCOc1cc(CN2CCC(Nc3nc(Cl)ncc3OC)CC2)ccc1OC [Example 147, [1-(3-allyloxy-4-methoxy-benzyl)-piperidin-4-yl]-(2-chloro-5-methoxy-pyrimidin-4-yl)-amine]  78 nM
3. CCOc1cc(CN2CCC(Nc3ncnc4cc(Cl)ccc34)CC2)ccc1Cl [Example 23, [1-(4-chloro-3-ethoxy-benzyl)-piperidin-4-yl]-(7-chloro-quinazolin-4-yl)-amine]  2 nM
